Experimental data taken from Sander's compilation of Henry's law constants (doi:10.1021/je970046g).

Assay: Henry solubility constant Hcp at 293 K (mol/(m3 Pa))
Conditions: reference: Hovorka and Dohnal (1997)

Row | SMILES | Henry solubility constant Hcp at 293 K
1 | CC(Cl)(Cl)Cl [1,1,1-trichloroethane] | 0.00079
2 | ClC(Cl)C(Cl)Cl [1,1,2,2-tetrachloroethane] | 0.03
3 | ClCC(Cl)Cl [1,1,2-trichloroethane] | 0.015
4 | CC(Cl)CCl (centres undefined) [1,2-dichloropropane] | 0.0046
5 | Clc1cccc(Cl)c1 [1,3-dichlorobenzene] | 0.0047
6 | Clc1ccc(Cl)cc1 [1,4-dichlorobenzene] | 0.0054
7 | ClCc1ccccc1 [(chloromethyl)-benzene] | 0.028
8 | Brc1ccccc1 [bromobenzene] | 0.0061
9 | Clc1ccccc1 [chlorobenzene] | 0.0035
10 | BrCBr [dibromomethane] | 0.015
11 | ClCCl [dichloromethane] | 0.0051
12 | ClC(Cl)=C(Cl)Cl [tetrachloroethene] | 0.00084
13 | BrC(Br)Br [tribromomethane] | 0.023
14 | ClC=C(Cl)Cl [trichloroethene] | 0.0013
